This passage reports acaricidal rate results from patent US20200163336A1, “CYCLIC AMINE COMPOUND AND PEST CONTROL AGENT” (Nippon Soda Co., Ltd., priority 2017, published 2020).

SMILES strings stand for the structures.

The subject of assay [1] is Tetranychus kanzawai. Briefly: Efficacy test against Tetranychus kanzawai (spray on mung beans). The class given is in vivo. To be noted: 125 ppm by mass, sprayed on mung beans; female adults; 25° C., humidity 65%; 10 days after spraying.
Assay [2] relates to Tetranychus urticae. In words: Efficacy test against Tetranychus urticae (spray on common beans). The class given is in vivo. Particulars: 125 ppm by mass, sprayed on common beans; female adults; 25° C., humidity 65%; 10 days after spraying.

For `CSCC1CCN(C(=O)c2cc(C#N)c(-c3ccc(C(F)(F)F)cc3)nc2C)CC1` [a-90], the acaricidal rate entry in assay [1] and in assay [2] was “a-90%” in each case.
Turning to `CCSCC1CCN(C(=O)c2cc(C#N)c(-c3ccc(C(F)(F)F)cc3)nc2CSC)CC1` [a-190], in assay [2], the acaricidal rate result is given as “a-190%”.
Same read-out and setting: under `CCSCC1CCN(C(=O)c2cc(C(N)=S)c(-c3ccc(C(F)(F)F)cc3)nc2C(F)(F)C(F)(F)F)CC1` [b-90] stands “b-90%”.
